From patent publication US7485315B2, “Compositions comprising a compound of low solubility and a lipophilic amino acid derivative, uses thereof and process for dissolving a compound of low solubility” (L'Oreal, priority 2001, dated 2009)

Key:
[1] = Simple solubility in isopropyl N-lauroylsarcosinate
Method: Protocol: The derivatives of low solubility in water are weighed out and placed in a sealed pill bottle. The required amount of solvent is added. The suspension is stirred (magnetic stirring) at 80° C. for not more than 1 hour.
The non-solubility of the active agent in the solvent is characterized macroscopically by a precipitate or just a cloudy solution, and microscopically by the presence of crystals.
The solvent used is isopropyl N-lauroylsarcosinate.

[2] = Dissolution by lipophilic amino acid derivatives without recrystallization; type: physicochemical; conditions: in lipophilic amino acid derivatives, after 24 hours at 25° C.
Method: By way of illustration, the lipophilic amino acid derivatives used for the purposes of the present patent application allowed the dissolution of: • more than 20% of aminophenol derivatives without recrystallization after three weeks at 25° C., • more than 15% of salicylic acid derivatives without recrystallization after three weeks at 25° C. • about 4% of diosgenin or hecogenin acetate without recrystallization after 24 hours at 25° C.

[3] = content 5% in isopropyl N-lauroylsarcosinate
[4] = content 2% in isopropyl N-lauroylsarcosinate

| Stability over time at 25° C. (clear for) [1, 3] | Compound | Stability over time at 25° C. (clear for) [1, 4] | Amount dissolved without recrystallization [2] | further results |
| --- | --- | --- | --- | --- |
| clear for 18 days | CCOC(=O)Nc1ccc(O)cc1 [N-ethoxycarbonyl-para-aminophenol, N-ethoxycarbonyl-4-para-aminophenol] | – | – | Stability over time at 25° C. (clear for) ([1]; content 20% in isopropyl N-lauroylsarcosinate): clear for 6 days; Stability over time at 25° C. (clear for) ([1]; content 23% in isopropyl N-lauroylsarcosinate): clear for 6 days; Stability over time at 25° C. (clear for) ([1]; content 26% in isopropyl N-lauroylsarcosinate): clear for 1 day |
| – | CC(=O)O[C@H]1CC[C@@]2(C)[C@@H](CC[C@@H]3[C@@H]2CC(=O)[C@]2(C)[C@@H]4[C@H](C[C@@H]32)O[C@]2(CC[C@@H](C)CO2)[C@H]4C)C1 [Hecogenin acetate, (3β, 5α, 25R)-3-hydroxyspirostan-12-one (hecogenin acetate)] | clear for 1 day | about 4% | – |
| clear for 7 days | CCCCCCCC(=O)c1ccc(O)c(C(=O)O)c1 [5-n-octanoylsalicylic acid] | – | – | Stability over time at 25° C. (clear for) ([1]; content 9% in isopropyl N-lauroylsarcosinate): clear for 4 days; Stability over time at 25° C. ([1]; content 27% in isopropyl N-lauroylsarcosinate): clear |
| – | C[C@@H]1CC[C@@]2(OC1)O[C@H]1C[C@H]3[C@@H]4CC=C5C[C@@H](O)CC[C@]5(C)[C@H]4CC[C@]3(C)[C@H]1[C@@H]2C [Diosgenin, 5-spirostene-3-β-ol] | clear for 3 weeks | about 4% | – |
| – | CCCCCCCCCCCCNc1ccnc(N)[n+]1[O-] [2-amino-4-dodecylaminopyrimidine 3-oxide] | – | – | Stability over time at 25° C. (clear for) ([1]; content 1% in isopropyl N-lauroylsarcosinate): clear for 1 day |
